Data set [1] deals with T1, DOR (Mus musculus, UniProt P32300). Briefly: [35S]GTP-γ-S binding assay, agonist stimulation, DOR. Conditions: for DOR EC50: stimulation of [35S]GTP-γ-S binding, no stim = no stimulation at 10 µM.
For data set [2], the target named is T1, DOR. Briefly: [35S]GTP-γ-S binding assay, antagonist shift design, DOR. The format is biochemical.
Data set [3] relates to mice. Description: 55 °C warm-water tail-withdrawal assay, i.c.v. administration. Conditions: mouse. Format: in vivo, Male ICR mice.
The target in data set [4] is hDOR (Homo sapiens, UniProt P41143). Briefly: Radioligand displacement binding, [3H]DADLE, CHO cell membranes expressing hDOR. Conditions: 18a vs 17b, 18d vs 17f. A general note: In a radioligand displacement assay an active substance lowers the binding of a labelled ligand.
For data set [5], the target named is T2, hMOR (Homo sapiens, UniProt P35372). Description: [35S]GTP-γ-S binding assay, agonist stimulation, MOR. Format: biochemical. Conditions: stimulation of [35S]GTP-γ-S binding; no stim = no stimulation at 10 µM.
Data set [6] addresses T2, hMOR. Briefly: [35S]GTP-γ-S binding assay, antagonist shift design, MOR. The format is biochemical.
Data set [7] concerns the target T3, hKOR (Homo sapiens, UniProt P41145). Description: [35S]GTP-γ-S binding assay, agonist stimulation, KOR. Conditions: stimulation of [35S]GTP-γ-S binding; no stim = no stimulation at 10 µM. The format is biochemical.
Data set [8] addresses T3, hKOR. Briefly: [35S]GTP-γ-S binding assay, antagonist shift design, KOR. Format: biochemical. A general note: Binding of GTPγS marks nucleotide exchange on a G protein.
Data set [9] concerns mice. Format: in vivo, Male ICR mice. Conditions: mouse, i.c.v.

T1 sequence (P32300 whole entry): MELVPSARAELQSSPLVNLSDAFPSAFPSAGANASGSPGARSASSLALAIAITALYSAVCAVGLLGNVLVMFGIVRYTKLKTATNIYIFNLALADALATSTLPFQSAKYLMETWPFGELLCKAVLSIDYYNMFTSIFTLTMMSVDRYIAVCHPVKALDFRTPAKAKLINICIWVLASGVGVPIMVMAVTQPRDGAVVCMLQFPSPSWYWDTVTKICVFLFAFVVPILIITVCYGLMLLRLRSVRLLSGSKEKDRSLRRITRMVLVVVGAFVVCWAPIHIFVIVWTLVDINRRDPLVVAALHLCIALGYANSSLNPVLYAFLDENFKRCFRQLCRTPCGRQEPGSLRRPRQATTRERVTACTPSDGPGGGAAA
T2 sequence (P35372 whole entry): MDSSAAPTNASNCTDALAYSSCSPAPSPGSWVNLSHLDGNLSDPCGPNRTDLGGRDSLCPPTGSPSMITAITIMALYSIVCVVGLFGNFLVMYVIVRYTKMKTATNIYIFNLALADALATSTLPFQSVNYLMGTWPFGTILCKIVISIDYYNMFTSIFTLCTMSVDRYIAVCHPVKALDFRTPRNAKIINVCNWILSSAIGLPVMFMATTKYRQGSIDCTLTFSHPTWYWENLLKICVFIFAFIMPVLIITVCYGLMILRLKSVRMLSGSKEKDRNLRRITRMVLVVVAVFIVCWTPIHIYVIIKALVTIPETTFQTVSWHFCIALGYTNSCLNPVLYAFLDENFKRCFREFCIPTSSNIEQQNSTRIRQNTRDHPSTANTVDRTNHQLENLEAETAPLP
T3 sequence (P41145 whole entry): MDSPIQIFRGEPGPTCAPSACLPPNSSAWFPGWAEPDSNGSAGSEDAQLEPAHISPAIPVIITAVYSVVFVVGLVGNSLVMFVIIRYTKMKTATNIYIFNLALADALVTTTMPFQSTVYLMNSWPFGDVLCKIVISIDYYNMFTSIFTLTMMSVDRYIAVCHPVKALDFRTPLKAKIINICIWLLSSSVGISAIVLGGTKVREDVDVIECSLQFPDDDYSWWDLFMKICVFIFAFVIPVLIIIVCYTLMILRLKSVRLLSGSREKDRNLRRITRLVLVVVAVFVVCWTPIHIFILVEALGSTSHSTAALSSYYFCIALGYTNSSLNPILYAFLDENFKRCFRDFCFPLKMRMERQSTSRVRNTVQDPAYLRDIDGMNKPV
hDOR, sequence (P41143 whole entry): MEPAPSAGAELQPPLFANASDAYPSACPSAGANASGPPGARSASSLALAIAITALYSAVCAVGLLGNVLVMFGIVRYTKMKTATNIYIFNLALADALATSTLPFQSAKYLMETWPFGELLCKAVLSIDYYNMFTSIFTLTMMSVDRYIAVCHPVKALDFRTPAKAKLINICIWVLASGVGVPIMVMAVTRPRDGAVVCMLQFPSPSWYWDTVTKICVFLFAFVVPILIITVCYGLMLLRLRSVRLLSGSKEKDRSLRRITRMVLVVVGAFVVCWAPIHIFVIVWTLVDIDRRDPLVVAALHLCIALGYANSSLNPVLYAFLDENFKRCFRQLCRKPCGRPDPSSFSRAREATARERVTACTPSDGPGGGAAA

With `Oc1ccc2c3c1O[C@H]1c4ncc(-c5ccc(Cl)cc5)cc4C[C@@]4(OCCCc5ccccc5)[C@@H](C2)N(CC2CC2)CC[C@]314` [17d, 5′-(4-Chlorophenyl)-17-(cyclopropylmethyl)-6,7-didehydro-4,5α-epoxy-3-hydroxy-14-(3-phenylpropoxy)pyrido[2′,3′:6,7]morphinan], in [1], the “DOR EC50” value is recorded as “no stim”. Besides, the Kb in [2] came out at 0.091 ± 0.01 nM. The “dose for maximal antinociception” value in [3] worked out at 1 nmol.

With `O=C(O[C@@]12Cc3cc(-c4ccc(Cl)cc4)cnc3[C@@H]3Oc4c(O)ccc5c4[C@@]31CCN(CC1CC1)[C@@H]2C5)c1ccccc1` [18a, 14-Benzoyloxy-5′-(4-chlorophenyl)-17-(cyclopropylmethyl)-6,7-didehydro-4,5α-epoxy-3-hydroxypyrido[2′,3′:6,7]morphinan], the “fold weaker in binding to DOR compared to 14-benzyloxy counterpart” value in [4] is given as 45 fold. For the same compound, the “DOR EC50” value in data set [1] was “no stim”. Also, the figures for the antagonist equilibrium constant (Kb) in [2], in data set [6] and in data set [8] were 218 ± 2 nM, 261 ± 36 nM and 126 ± 13 nM, respectively. In addition, the “MOR EC50” value in [5] is “no stim”. Moreover, the “KOR EC50” value in data set [7] is given as “no stim”.

`O=C(CCc1ccccc1)O[C@@]12Cc3cc(-c4ccc(Cl)cc4)cnc3[C@@H]3Oc4c(O)ccc5c4[C@@]31CCN(CC1CC1)[C@@H]2C5` [18c, 5′-(4-Chlorophenyl)-17-(cyclopropylmethyl)-6,7-didehydro-4,5α-epoxy-3-hydroxy-14-(3-phenylpropionyloxy)pyrido[2′,3′:6,7]morphinan]: the “DOR EC50” value in data set [1] is reported as “no stim”. The antagonist equilibrium constant (Kb) in data set [2] came to 1.86 ± 0.21 nM; in data set [6] it was 13 ± 1.7 nM; in [8], 14 ± 2 nM. Further, in data set [5], the “MOR EC50” value is given as “no stim”.

With `CN1CC[C@]23c4c5ccc(O)c4O[C@H]2[C@@H](O)C=C[C@H]3[C@H]1C5` [Morphine, reference compound], the “dose for maximal antinociception” value in data set [3] is 10 nmol.

Take `CN1CC[C@]23c4c5ccc(O)c4O[C@H]2c2ncc(-c4ccc(Cl)cc4)cc2C[C@@]3(OC(=O)c2ccccc2)[C@H]1C5` [18d, 14-Benzoyloxy-5′-(4-chlorophenyl)-6,7-didehydro-4,5α-epoxy-3-hydroxy-17-methylpyrido[2′,3′:6,7]morphinan]: the “fold weaker in binding to DOR compared to 14-benzyloxy counterpart” value in [4] is given as 10 fold. The “DOR EC50” value in data set [1] was “no stim”. Moreover, the values for the Kb in [2], in [6] and in data set [8] were 45 ± 6 nM, 1270 ± 166 nM and 426 ± 47 nM, respectively. For the same compound, the “KOR EC50” value in data set [7] was “no stim”.

In [1], `CN1CC[C@]23c4c5ccc(O)c4O[C@H]2c2ncc(-c4ccc(Cl)cc4)cc2C[C@@]3(OC/C=C/c2ccccc2)[C@H]1C5` [17g, 5′-(4-Chlorophenyl)-14-cinnamyloxy-6,7-didehydro-4,5α-epoxy-3-hydroxy-17-methylpyrido[2′,3′:6,7]morphinan] came in with an EC50 of 0.59 ± 0.05 nM. The “dose for maximal antinociception” value in data set [3] worked out at 1 nmol. The “toxicity on repeated administration” value in data set [9] is “undue toxicity”.

With `CO[C@@]12Cc3cc(-c4ccc(Cl)cc4)cnc3[C@@H]3Oc4c(O)ccc5c4[C@@]31CCN(CC1CC1)[C@@H]2C5` [17a, 5′-(4-Chlorophenyl)-17-(cyclopropylmethyl)-6,7-didehydro-4,5α-epoxy-3-hydroxy-14-methoxypyrido[2′,3′:6,7]morphinan], the “DOR EC50” value in data set [1] is “no stim ^b”. The “MOR EC50” value in data set [5] is listed as “no stim”.

On to `Oc1ccc2c3c1O[C@H]1c4ncc(-c5ccc(Cl)cc5)cc4C[C@@]4(OC/C=C/c5ccccc5)[C@@H](C2)N(CC2CC2)CC[C@]314` [17c, 5′-(4-Chlorophenyl)-14-cinnamyloxy-17-(cyclopropylmethyl)-6,7-didehydro-4,5α-epoxy-3-hydroxypyrido[2′,3′:6,7]morphinan], for which the “DOR EC50” value in data set [1] is “no stim”. In addition, the “MOR EC50” value in [5] is “no stim”.

Regarding `CN1CC[C@]23c4c5ccc(O)c4O[C@H]2c2ncc(-c4ccc(Cl)cc4)cc2C[C@@]3(OC(=O)Cc2ccccc2)[C@H]1C5` [18e, 5′-(4-Chlorophenyl)-6,7-didehydro-4,5α-epoxy-3-hydroxy-17-methyl-14-(phenylacetoxy)pyrido[2′,3′:6,7]morphinan], in data set [1], it took 19 ± 6 nM to reach a half-maximal effect (EC50). For the same compound, the antagonist equilibrium constant (Kb) is 3.38 ± 0.34 nM in data set [2] and 198 ± 20 nM in data set [8].

With `CN1CC[C@]23c4c5ccc(O)c4O[C@H]2c2ncc(-c4ccc(Cl)cc4)cc2C[C@@]3(OCCCc2ccccc2)[C@H]1C5` [17h, 5′-(4-Chlorophenyl)-6,7-didehydro-4,5α-epoxy-3-hydroxy-17-methyl-14-(3-phenylpropoxy)pyrido[2′,3′:6,7]morphinan], the EC50 in [1] worked out at 0.27 ± 0.03 nM. Besides, the “dose for maximal antinociception” value in [3] was 1 nmol. The “toxicity on repeated administration” value in data set [9] was “undue toxicity”. In data set [7], the “KOR EC50” value was “no stim”. In [8], the antagonist dissociation constant (Kb) is 6.9 ± 0.02 nM.

`CN1CC[C@]23c4c5ccc(O)c4O[C@H]2c2ncc(-c4ccc(Cl)cc4)cc2C[C@@]3(OCc2ccccc2)[C@H]1C5` [17f, 14-Benzyloxy-5′-(4-chlorophenyl)-6,7-didehydro-4,5α-epoxy-3-hydroxy-17-methylpyrido[2′,3′:6,7]morphinan] came in with a half-maximal effective concentration (EC50) in [1] of 11 ± 1 nM. For the same compound, the Kb in [2] amounted to 4.54 ± 0.81 nM; in data set [8], 83 ± 14 nM.

`CO[C@@]12Cc3cc(-c4ccc(Cl)cc4)cnc3[C@@H]3Oc4c(O)ccc5c4[C@@]31CCN(C)[C@@H]2C5` [17e, 5′-(4-Chlorophenyl)-6,7-didehydro-4,5α-epoxy-3-hydroxy-14-methoxy-17-methylpyrido[2′,3′:6,7]morphinan]: the “DOR EC50” value in [1] was “no stim”. Moreover, the antagonist dissociation constant (Kb) in [2] worked out at 1.6 ± 0.35 nM; in [8], 17 ± 0.13 nM. Besides, the “dose for maximal antinociception” value in [3] was determined as 10 nmol. Besides, the “fold weaker analgesic effect than other tested ligands” value in [3] (tail-withdrawal) is 6 fold.

Turning to `O=C(Cc1ccccc1)O[C@@]12Cc3cc(-c4ccc(Cl)cc4)cnc3[C@@H]3Oc4c(O)ccc5c4[C@@]31CCN(CC1CC1)[C@@H]2C5` [18b, 5′-(4-Chlorophenyl)-17-(cyclopropylmethyl)-6,7-didehydro-4,5α-epoxy-3-hydroxy-14-(phenylacetoxy)pyrido[2′,3′:6,7]morphinan], the “DOR EC50” value in [1] is listed as “no stim”. The figures for the antagonist equilibrium constant (Kb) in data set [2], in [6] and in data set [8] were 0.37 ± 0.04 nM, 0.48 ± 0.06 nM and 7 ± 2 nM, respectively. Moreover, the “MOR EC50” value in data set [5] was “no stim”.

In the case of `Oc1ccc2c3c1O[C@H]1c4ncc(-c5ccc(Cl)cc5)cc4C[C@@]4(OCc5ccccc5)[C@@H](C2)N(CC2CC2)CC[C@]314` [17b, 14-(Benzyloxy)-5′-(4-chlorophenyl)-17-(cyclopropylmethyl)-6,7-didehydro-4,5α-epoxy-3-hydroxypyrido[2′,3′:6,7]morphinan], the “DOR EC50” value in [1] is reported as “no stim”. Moreover, the antagonist dissociation constant (Kb) came to 0.64 ± 0.11 nM in data set [2], 11 ± 1 nM in [6] and 13 ± 3 nM in data set [8]. Also, the “MOR EC50” value in data set [5] is “no stim”.

As for `Oc1ccc2c3c1O[C@H]1c4ncc(-c5ccc(Cl)cc5)cc4C=C4[C@@H](C2)N(CC2CC2)CC[C@]431` [compound 23, 5′-(4-Chlorophenyl)-17-(cyclopropylmethyl)-3-hydroxy-6,7,8,14-tetradehydro-4,5α-epoxypyrido[2′,3′:6,7]morphinan], the “DOR EC50” value in data set [1] is “no stim”. In addition, the Kb came to 0.58 ± 0.1 nM in data set [2], 8 ± 0.89 nM in data set [6] and 19 ± 3 nM in [8]. Further, the “MOR EC50” value in [5] is “no stim”. Moreover, the “KOR EC50” value in data set [7] is on record as “no stim”.

With `CN1CC[C@]23c4c5ccc(O)c4O[C@H]2c2ncc(-c4ccc(Cl)cc4)cc2C[C@@]3(OC(=O)CCc2ccccc2)[C@H]1C5` [18f, 5′-(4-Chlorophenyl)-6,7-didehydro-4,5α-epoxy-3-hydroxy-17-methyl-14-(3-phenylpropionyloxy)pyrido[2′,3′:6,7]morphinan], in [1], a half-maximal effect (EC50) was put at 5.52 ± 0.53 nM. Further, the Kb in data set [2] came to 1.64 ± 0.3 nM; in data set [8], 18 ± 0.2 nM.

As usually defined, the Kb is the equilibrium dissociation constant of an antagonist, usually derived from a functional assay. As usually defined, the EC50 is the concentration at which the effect is half-maximal. A low value points to a more potent agent.

(Values after paper PMC3499949 (Journal of medicinal chemistry, 2012).)
